Assay results published in US11026426B2, “Oxadiazole and phenol derivatives as antibacterial and/or herbicidal agents” (NORTHERN ILLINOIS RESEARCH FOUNDATION, priority 2017, dated 2021).
Like-named read-outs stand apart in the source and are kept apart here.

Assays:
AtIspF = AtIspF (Arabidopsis thaliana, UniProt Q9CAK8); assay: University of Hamburg photometric enzymatic inhibition assay AtIspF; format: biochemical; settings: read-out: AtIspF IC50
Method in brief: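 Coupled photometric assay (CMP kinase/pyruvate kinase/lactate dehydrogenase, NADH consumption) with 2.4 mU AtIspF and 1 mM 4-diphosphocytidyl-2C-methylerythritol 2-phosphate, 2 mM ATP, in 100 mM Tris-HCl pH 8.0, 10 mM MgCl2, 1.1% DMSO. Monitored at 27 °C.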

[1] = molecular target: T1, Mycobacterium tuberculosis IspD (MtIspD) (Mycobacterium tuberculosis, UniProt P9WKG9); assay: Thermal shift assay against MtIspD; format: binding
T1 sequence (P9WKG9 1-231): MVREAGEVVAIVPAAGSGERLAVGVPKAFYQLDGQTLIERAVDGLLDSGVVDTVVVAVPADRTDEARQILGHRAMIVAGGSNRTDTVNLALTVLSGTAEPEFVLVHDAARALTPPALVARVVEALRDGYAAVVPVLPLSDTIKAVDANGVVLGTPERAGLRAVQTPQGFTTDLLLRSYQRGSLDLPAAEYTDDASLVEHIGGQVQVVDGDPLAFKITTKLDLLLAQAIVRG

LeIspE = LeIspE (Solanum lycopersicum, UniProt P93841); assay: University of Hamburg photometric enzymatic inhibition assay LeIspE; format: biochemical, Lycopersicon esculentum; settings: read-out: LeIspE IC50
Chain of LeIspE (P93841 89-401): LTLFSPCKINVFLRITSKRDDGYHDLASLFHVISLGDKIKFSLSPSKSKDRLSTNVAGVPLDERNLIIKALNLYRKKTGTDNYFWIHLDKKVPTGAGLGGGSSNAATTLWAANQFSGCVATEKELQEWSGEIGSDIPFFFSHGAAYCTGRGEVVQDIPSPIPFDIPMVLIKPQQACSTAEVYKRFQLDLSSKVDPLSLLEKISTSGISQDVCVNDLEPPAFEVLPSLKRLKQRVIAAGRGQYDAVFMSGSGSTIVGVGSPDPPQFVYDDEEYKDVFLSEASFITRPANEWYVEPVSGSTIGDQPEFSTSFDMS
Method in brief: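 Photometric coupled assay with pyruvate kinase/lactate dehydrogenase following NADH (460 μM). Mix: 100 mM Tris-HCl pH 8.0, 10 mM MgCl2, 1 mM DTT, 2.5 mM phosphoenolpyruvate, 2 mM ATP, 1 mM 4-diphosphocytidyl-2-C-methylerythritol, 1.1% DMSO, 2.4 mU IspE; incubated at 27° C.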

Klebsiella pneumonia = assay: Antibacterial preliminary screening KP; format: cell-based; settings: score 0-3; note: key: 0 represents no inhibition; 3 is comparable to commercial antibiotic control
[2] = system: Burkholderia thailandensis; format: cell-based; settings: preliminary screening, score 0-3
Bacillus cereus = assay: Antibacterial preliminary screening BC; format: cell-based; settings: score 0-3; note: key: 0 represents no inhibition; 3 is comparable to commercial antibiotic control
AtIspD = AtIspD (Arabidopsis thaliana, UniProt P69834); assay: University of Hamburg photometric enzymatic inhibition assay AtIspD; format: biochemical; settings: read-out: AtIspD IC50
Chain of AtIspD (P69834 62-302): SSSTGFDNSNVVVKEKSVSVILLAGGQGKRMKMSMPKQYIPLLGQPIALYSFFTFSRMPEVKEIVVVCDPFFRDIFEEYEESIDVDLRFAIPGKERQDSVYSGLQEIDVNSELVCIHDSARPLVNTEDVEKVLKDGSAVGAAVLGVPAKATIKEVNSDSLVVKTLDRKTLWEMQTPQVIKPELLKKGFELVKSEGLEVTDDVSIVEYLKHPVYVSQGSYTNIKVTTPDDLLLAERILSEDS
Method in brief: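 Coupled photometric assay: 2.4 mU AtIspD with 1 mM (2R,3S)-2,3-dihydroxy-4-oxopentyl phosphate, 2.1 mM CTP, excess IspE (0.4 U), ATP, pyruvate kinase/lactate dehydrogenase and 460 μM NADH. Run in 100 mM Tris-HCl pH 8.0, 10 mM MgCl2, 1 mM DTT, 1.1% DMSO at 27 °C, monitored photometrically.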

lettuce seeds = assay: Lettuce leaf assay; format: in vivo; parameters: key: 0 (no effect); 5(complete inhibition or bleaching); settings: ranking 0-5
Method in brief: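 Qualitative assay: compounds in volatile organic solvent applied to filter paper in a petri dish, solvent evaporated, lettuce seeds and 5 mL water added to give test concentrations. Germination, root development and leaf bleaching scored days 3 and 4, ranked 0 (no effect) to 5 (complete inhibition or bleaching).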

Escherichia coli = assay: Antibacterial preliminary screening EC; format: cell-based; settings: score 0-3; note: key: 0 represents no inhibition; 3 is comparable to commercial antibiotic control
Micrococcus luteus = assay: Antibacterial preliminary screening ML; format: cell-based; settings: score 0-3; note: key: 0 represents no inhibition; 3 is comparable to commercial antibiotic control
[3] = molecular target: Lycopersicon esculentum IspE (LeIspE) (Solanum lycopersicum, UniProt P93841); assay: Thermal shift assay against LeIspE; format: binding
Chain of Lycopersicon esculentum IspE (LeIspE) (P93841 89-401): as the sequence (P93841 89-401) above

Pseudomonas aeruginosa = assay: Antibacterial preliminary screening PA; format: cell-based; settings: score 0-3; note: key: 0 represents no inhibition; 3 is comparable to commercial antibiotic control
P. falciparum IspD = P. falciparum IspD (Plasmodium falciparum, UniProt Q8I273); assay: IspD assay (Washington University, EnzCheck phosphate) PfIspD; format: biochemical
Chain of P. falciparum IspD (Q8I273 entry or part of it): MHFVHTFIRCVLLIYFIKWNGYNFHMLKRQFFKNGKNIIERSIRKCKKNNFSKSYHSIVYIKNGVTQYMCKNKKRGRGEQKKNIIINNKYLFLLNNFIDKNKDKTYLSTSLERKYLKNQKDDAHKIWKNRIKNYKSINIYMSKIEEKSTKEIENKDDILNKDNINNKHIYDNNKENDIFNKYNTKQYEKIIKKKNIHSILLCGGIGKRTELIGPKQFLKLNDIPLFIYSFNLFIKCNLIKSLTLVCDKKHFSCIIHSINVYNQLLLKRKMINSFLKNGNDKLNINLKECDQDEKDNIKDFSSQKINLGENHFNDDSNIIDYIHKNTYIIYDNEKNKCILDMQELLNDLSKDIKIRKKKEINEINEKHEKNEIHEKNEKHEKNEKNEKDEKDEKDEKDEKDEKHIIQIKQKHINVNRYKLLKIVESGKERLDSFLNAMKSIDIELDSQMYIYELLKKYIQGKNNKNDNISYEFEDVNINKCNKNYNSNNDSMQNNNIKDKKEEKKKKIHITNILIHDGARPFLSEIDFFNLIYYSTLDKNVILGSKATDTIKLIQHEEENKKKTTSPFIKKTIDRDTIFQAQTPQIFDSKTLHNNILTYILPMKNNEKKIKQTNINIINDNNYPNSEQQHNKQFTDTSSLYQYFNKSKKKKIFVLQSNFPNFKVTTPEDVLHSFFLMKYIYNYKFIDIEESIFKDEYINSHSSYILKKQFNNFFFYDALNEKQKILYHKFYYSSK

E. coli IspD = E. coli IspD (Escherichia coli, UniProt Q46893); assay: IspD assay (Washington University, EnzCheck phosphate) EcIspD; format: biochemical; settings: up to 100 μM; bar graph at 12.5 and 100 μM
Chain of E. coli IspD (Q46893 whole entry): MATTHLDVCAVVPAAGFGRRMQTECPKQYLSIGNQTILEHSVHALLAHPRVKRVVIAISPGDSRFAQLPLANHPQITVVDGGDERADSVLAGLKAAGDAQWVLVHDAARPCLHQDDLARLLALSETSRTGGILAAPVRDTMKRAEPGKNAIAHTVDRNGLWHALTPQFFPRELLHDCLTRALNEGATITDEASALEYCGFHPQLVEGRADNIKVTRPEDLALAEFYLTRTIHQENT
Description: Compounds were tested against IspD from Escherichia coli and Plasmodium falciparum. The assay measured activity through monitoring phosphate levels released by IspD enzyme over time using conditions published previously. The assay utilized the EnzCheck phosphate assay kit to quantify phosphate released by IspD. Reactions were done in a 96-well plate with each well containing a final volume of 50 μL. Concentrations of reagents were as follows: 100 mM NaCl, 25 mM Tris at pH 7.0, 7.5 mM MgCl2, 1 mM dithiothreitol, 1 U/mL purine nucleoside phosphorylase, and 0.1 U/mL yeast inorganic pyrophosphatase, 50 μM CTP, 500 μM MEP, 0.1% DMSO, and 0.2 mM 2-Amino-6-mercapto-7-methyl puring riboside. Reactions with EclspD used 2 nM EclspD and reactions with PfIspD used 50 nM PfIspD. Reactions involved pre-warming the enzyme and buffers to 37° C. with different inhibitor concentrations followed by the addition of the purified MEP substrate. Absorbance was measured at 360 nm over time and values were used to create regression analysis curves from three trials and values were converted to (μM MEP)(μM enzyme)^−1s^−1 using a standard phosphate curve. These values were then used to identify percent activity compared to enzyme activity without the inhibitor. Results are indicated.

Corynebacterium xerosis = assay: Antibacterial preliminary screening CX; format: cell-based; settings: score 0-3; note: key: 0 represents no inhibition; 3 is comparable to commercial antibiotic control
Mycobacterium smegmatis = assay: Antibacterial preliminary screening MS; format: cell-based; settings: score 0-3; note: key: 0 represents no inhibition; 3 is comparable to commercial antibiotic control
[4] = system: Corynebacterium pseudodiphtheriae; assay: Antibacterial preliminary screening CP; format: cell-based; settings: score 0-3;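 note: 0 is no inhibition and 3 matches the commercial antibiotic control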
[5] = molecular target: Arabidopsis thaliana IspD (Arabidopsis thaliana, UniProt P69834); settings: read-out: AtIspD IC50, cited from earlier work
Chain of Arabidopsis thaliana IspD (P69834 62-302): as the sequence (P69834 62-302) above

[6] = system: IspE of Mycobacterium abscessus; assay: STD-NMR fragment screening MaIspE; format: binding; settings: Fragments of Life library screening
[7] = molecular target: Mycobacterium paratuberculosis IspD (MpIspD) (Mycolicibacterium paratuberculosis, UniProt Q743W5); assay: Thermal shift assay against MpIspD; format: binding
Chain of Mycobacterium paratuberculosis IspD (MpIspD) (Q743W5 whole entry, the tested form may be a part): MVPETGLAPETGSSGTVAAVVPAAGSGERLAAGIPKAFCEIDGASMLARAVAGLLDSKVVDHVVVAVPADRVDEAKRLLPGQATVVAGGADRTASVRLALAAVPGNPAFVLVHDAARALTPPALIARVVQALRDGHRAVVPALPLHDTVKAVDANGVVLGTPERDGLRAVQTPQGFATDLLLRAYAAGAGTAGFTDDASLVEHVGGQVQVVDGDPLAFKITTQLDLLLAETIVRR

[8] = molecular target: IspD of Mycobacterium paratuburculosis (Mycolicibacterium paratuberculosis, UniProt Q743W5); assay: STD-NMR fragment screening MpIspD; format: binding; settings: Fragments of Life library screening
Chain of IspD of Mycobacterium paratuburculosis (Q743W5 whole entry, the tested form may be a part): as above

Chain of AtIspF (Q9CAK8 53-231): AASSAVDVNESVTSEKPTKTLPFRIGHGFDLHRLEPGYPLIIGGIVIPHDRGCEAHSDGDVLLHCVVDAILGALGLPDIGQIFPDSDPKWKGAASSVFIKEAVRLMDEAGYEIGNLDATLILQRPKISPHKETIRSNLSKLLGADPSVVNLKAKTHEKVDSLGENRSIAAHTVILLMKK

| SMILES | IC50 (AtIspF) [µM] | MtIspD melting point change [1] [°C] | MtIspD melting temp [1] [°C] | IC50 (LeIspE) [µM] | KP score (Klebsiella pneumonia) | BT score [2] | melting point [°C] | BC score (Bacillus cereus) | IC50 (AtIspD) [µM] | Bleaching (lettuce seeds; 0.2 mM) | Germination (lettuce seeds; 0.2 mM) | Root Dev. (lettuce seeds; 0.2 mM) | EC score (Escherichia coli) | ML score (Micrococcus luteus) | LeIspE melting point change [3] [°C] | LeIspE melting temp [3] [°C] | PA score (Pseudomonas aeruginosa) | CX score (Corynebacterium xerosis) | MS score (Mycobacterium smegmatis) | CP score [4] | further results |
| --- | --- | --- | --- | --- | --- | --- | --- | --- | --- | --- | --- | --- | --- | --- | --- | --- | --- | --- | --- | --- | --- |
| Clc1ccc(-c2nnc(-c3cc4ccccc4[nH]3)o2)cc1 [HGN-213, 2-(4-chlorophenyl)-5-(1H-indol-2-yl)-1,3,4-oxadiazole] | > 1000 | 0.8 | 48.8 | 326 ± 29 | 0 | 0 | 265 to 270 | 0 | 490 | 0 | 1 | 0 | 0 | 0 | −2.00 | 47.50 | 0 | 0 | 0 | 0 | IC50 (P. falciparum IspD): ~100 µM; inhibition of E. coli IspD activity (E. coli IspD): some activity |
| Oc1c(Br)cc(Br)cc1-c1[nH]c(Br)c(Br)c1Br [pentabromopseudilin] |  |  |  |  |  |  |  |  |  |  |  |  |  |  |  |  |  |  |  |  | IC50 ([5]; with 40 μM Cd2+ added): 1.4 ± 0.2 µM; IC50 ([5]; without a metal added): 13 ± 2 µM |
| c1ccc2[nH]c(-c3nnco3)cc2c1 [HGN-207, 2-(1H-indol-2-yl)-1,3,4-oxadiazole] | > 1000 | 1.5 | 49.5 | > 1000 | 0 | 0 | 205 to 207 | 0 | > 1000 |  |  |  | 0 | 0 | −1.25 | 48.25 | 0 | 0 | 0 | 0 | STD-NMR binding to MaIspE [6]: bound; MpIspD thermal shift (positive shift) [7]: 0.8 °C; Bleaching (lettuce seeds; 0.5 mM): 2; Germination (lettuce seeds; 0.5 mM): 2; Root Dev. (lettuce seeds; 0.5 mM): 0; Bleaching (lettuce seeds; 1.0 mM): 3; Germination (lettuce seeds; 1.0 mM): 2; Root Dev. (lettuce seeds; 1.0 mM): 0; STD-NMR binding to MpIspD [8]: bound |
| FC(F)(F)c1ccc(-c2nnc(-c3cc4ccccc4[nH]3)o2)cc1 [HGN-214, 2-(1H-indol-2-yl)-5-(4-(trifluoromethyl)phenyl)-1,3,4-oxadiazole] | > 1000 |  | 49.8 | 269 ± 23 | 0 | 0 | 258 to 260 | 0 | > 1000 | 0 | 0 | 0 | 0 | 0 | −1.00 | 48.50 | 0 | 0 | 0 | 0 | Bleaching (lettuce seeds; 0.5 mM): 0; Germination (lettuce seeds; 0.5 mM): 1; Root Dev. (lettuce seeds; 0.5 mM): 0; Bleaching (lettuce seeds; 1.0 mM): 0; Germination (lettuce seeds; 1.0 mM): 3; Root Dev. (lettuce seeds; 1.0 mM): 0; IC50 (P. falciparum IspD): ~100 µM; inhibition of E. coli IspD activity (E. coli IspD): some activity |
